The structures appear in SMILES notation. Active and inactive are the calls of the source. The calls are words filed in the database; no cut-off is given here.

In series [1] the test system is HepG2. Kind of series: Induction of mitochondrial membrane potential loss in human HepG2 cells assessed as proportion of cells with hyperpolarized mitochondria at 75 nM measured after 48 hrs by JC-1 staining based flow cytometry analysis (Rvb= 80.9%). It is filed as functional. For orientation: In flow cytometry, cells or beads pass a laser one at a time.
Series [2] concerns HepG2. The series can be described thus: Antitumor activity against human HepG2 cells xenografted in zebra fish AB assessed as tumor growth inhibition at 0.5 to 1 uM measured after 48 hrs by fluorescence microscopic analysis. It is filed as functional, cell-based. The following applies: dose 0.5-1 µM. On the technique in general: Xenograft models place foreign cells or tissue in a host animal.

Series [3] is described as follows: Toxicity in zebrafish AB assessed as malformation rate at <12 uM measured at 72 hrs postfertilization. Details: species or system Danio rerio. The following applies: in vivo.
The test system of series [4] is HepG2. Kind of series: Induction of apoptosis in human HepG2 cells assessed as late apoptotic cells at 75 nM measured after 48 hrs by Annexin V-FITC/PI double staining based flow cytometry analysis (Rvb= 2.89%). It is filed as functional.
A further series has as its system HeLa. Kind of series: Cytotoxicity against human HeLa cells assessed as inhibition of cell proliferation measured after 48 hrs by MTT assay. It is filed as functional, cell-based. On the technique in general: Tetrazolium assays rely on reduction of a dye to a coloured formazan, in cell work by metabolically active cells.
Series [5] concerns HepG2. The series can be described thus: Induction of mitochondrial membrane potential loss in human HepG2 cells assessed as proportion of cells with hyperpolarized mitochondria at 200 nM measured after 48 hrs by JC-1 staining based flow cytometry analysis (Rvb= 80.9%). It is filed as functional.
Series [6] deals with HepG2. Kind of series: Induction of apoptosis in human HepG2 cells assessed as early apoptotic cells at 75 nM measured after 48 hrs by Annexin V-FITC/PI double staining based flow cytometry analysis (Rvb= 2.16%). It is filed as functional.
The subject of series [7] is HepG2. The series can be described thus: Induction of mitochondrial membrane potential loss in human HepG2 cells assessed as proportion of cells with hyperpolarized mitochondria at 100 nM measured after 48 hrs by JC-1 staining based flow cytometry analysis (Rvb= 80.9%). It is filed as functional.
The subject of the next series is PANC-1. The series can be described thus: Cytotoxicity against human PANC-1 cells assessed as inhibition of cell proliferation measured after 48 hrs by MTT assay. It is filed as functional, cell-based. As to conditions: PANC-1, 48 h.
Series [8] has as its system HepG2. The series can be described thus: Induction of ROS generation in human HepG2 cells assessed as increase in ROS level at 50 to 150 nM measured after 48 hrs by DCFH-DA staining based flow cytometry analysis. It is filed as functional, cell-based. As to conditions: dose 50-150 nM.
Series [9] is described as follows: Toxicity in zebrafish AB assessed as mortality at 0.05 to 2 uM measured at 72 hrs postfertilization. Details: species or system Danio rerio. As to conditions: in vivo, dose 0.05-2 µM.
Series [10] concerns HepG2. Kind of series: Induction of apoptosis in human HepG2 cells assessed as live cells at 75 nM measured after 48 hrs by Annexin V-FITC/PI double staining based flow cytometry analysis (Rvb= 94.8%). It is filed as functional.
A further series deals with MCF7. The series can be described thus: Cytotoxicity against human MCF7 cells assessed as inhibition of cell proliferation measured after 48 hrs by MTT assay. It is filed as functional, cell-based. The following applies: MCF7, 48 h.
Series [11] concerns HepG2. The series can be described thus: Induction of cell cycle arrest in human HepG2 cells assessed as accumulation of cells in G0/G1 phase at 50 nM measured after 48 hrs by RNase A/PI staining based flow cytometry analysis (Rvb= 56.42+/- 0.27%). It is filed as functional.
The next series relates to L02. The series can be described thus: Cytotoxicity against human HL7702 cells assessed as inhibition of cell proliferation measured after 48 hrs by MTT assay. It is filed as cell-based. The following applies: L02, 48 h.
Series [12] concerns HepG2. The series can be described thus: Induction of apoptosis in human HepG2 cells assessed as necrotic cells at 50 nM measured after 48 hrs by Annexin V-FITC/PI double staining based flow cytometry analysis (Rvb= 0.13%). It is filed as functional.

In general, IC50 refers to the point on the concentration scale where inhibition reaches its midpoint. Take `CC(C)[C@]12O[C@H]1[C@@H]1O[C@]13[C@]1(O[C@H]1C[C@H]1C4=C(CC[C@@]13C)C(=O)OC4)[C@@H]2OC(=O)CCCCC[P+](c1ccccc1)(c1ccccc1)c1ccccc1.[Br-]`: the Activity in the series with HepG2 [1] is 64.4%; in series [3], “Non-Toxic”; in the series on HepG2 [4], 7.47%; in the series on HepG2 [5], 44.3%; in the series on HepG2 [6], 15.5%; with HepG2 [7] it was 54.4%. Also, the Activity entry is “Non-Toxic” in [9], 76.8% with HepG2 [10], 72.22% with HepG2 [11] and 0.63% in the series on HepG2 [12]. The outcome in the series on HepG2 [2] and in the series on HepG2 [8] was Active. The IC50 was determined as 325 nM in the series with HeLa, 349 nM in the series on PANC-1, 238 nM in the series on MCF7 and 334 nM in the series on L02.
